Source: US20110028686A1, “Protein binding miniature proteins” (Yale University, priority 2000, published 2011)
Square brackets hold non-standard residues; d marks the D form. Peptide text beside a SMILES is read from it. * marks the point of attachment. Fluorescein(5-NHCOCH2) = O=C(C*)Nc1ccc2c(c1)C(=O)OC21c2ccc(O)cc2Oc2cc(O)ccc21; pS = N[C@@H](COP(=O)(O)O)C(=O)O; Sar = CNCC(=O)O

molecular target: T1, CBP KIX wild type (Mus musculus, UniProt P45481); experiment: Equilibrium fluorescence polarization, wild type CBP KIX; format: binding; details: 25° C.
T1 construct: made in house; host or cells: E. coli BL21(DE3) pArg
T1 sequence (P45481 586-665 limits assumed): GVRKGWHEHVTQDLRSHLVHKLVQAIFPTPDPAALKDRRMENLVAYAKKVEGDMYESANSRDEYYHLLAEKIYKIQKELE

| Kd [nM] | SMILES |
| --- | --- |
| 3090 ± 180 | CC[C@H](C)[C@H](NC(=O)[C@H](Cc1ccc(O)cc1)NC(=O)[C@H](Cc1ccccc1)NC(=O)[C@H](Cc1ccccc1)NC(=O)[C@H](COP(=O)(O)O)NC(=O)[C@H](CC(C)C)NC(=O)[C@H](CCCNC(=N)N)NC(=O)[C@H](CCCNC(=N)N)NC(=O)[C@@H](NC(=O)[C@@H]1CCCN1C(=O)[C@H](C)NC(=O)[C@H](CC(=O)O)NC(=O)[C@H](CC(=O)O)NC(=O)CNC(=O)[C@@H]1CCCN1C(=O)[C@H](Cc1ccc(O)cc1)NC(=O)[C@@H](NC(=O)[C@@H]1CCCN1C(=O)[C@H](CCC(N)=O)NC(=O)[C@H](CO)NC(=O)[C@@H]1CCCN1C(=O)CN)[C@@H](C)O)C(C)C)C(=O)N[C@@H](CC(C)C)C(=O)N[C@@H](CC(C)C)C(=O)N[C@@H](CC(=O)O)C(=O)N[C@@H](CC(C)C)C(=O)N[C@@H](C)C(=O)N[C@@H](CC(C)C)C(=O)N[C@@H](CC(=O)O)C(=O)N[C@@H](C)C(=O)N1CCC[C@H]1C(=O)NCC(=O)N[C@H](C(=O)N[C@@H](CSCC(=O)Nc1ccc2c(c1)C(=O)OC21c2ccc(O)cc2Oc2cc(O)ccc21)C(N)=O)C(C)C [Y27A] (H-GPSQPTYPGDDAPVRRL[pS]FFYILLDLALDAPGVC(Fluorescein(5-NHCOCH2))-NH2) |
| 800 ± 30 | CC[C@H](C)[C@H](NC(=O)[C@H](Cc1ccc(O)cc1)NC(=O)[C@H](Cc1ccccc1)NC(=O)[C@H](Cc1ccccc1)NC(=O)[C@H](COP(=O)(O)O)NC(=O)[C@H](CC(C)C)NC(=O)[C@H](CCCNC(=N)N)NC(=O)[C@H](CCCNC(=N)N)NC(=O)[C@@H](NC(=O)[C@@H]1CCCN1C(=O)[C@H](C)NC(=O)[C@H](CC(=O)O)NC(=O)[C@H](CC(=O)O)NC(=O)CNC(=O)[C@@H]1CCCN1C(=O)[C@H](Cc1ccc(O)cc1)NC(=O)[C@@H](NC(=O)CN(C)C(=O)[C@H](CCC(N)=O)NC(=O)[C@H](CO)NC(=O)[C@@H]1CCCN1C(=O)CN)[C@@H](C)O)C(C)C)C(=O)N[C@@H](CC(C)C)C(=O)N[C@@H](CC(C)C)C(=O)N[C@@H](CC(=O)O)C(=O)N[C@@H](CC(C)C)C(=O)N[C@@H](Cc1ccc(O)cc1)C(=O)N[C@@H](CC(C)C)C(=O)N[C@@H](CC(=O)O)C(=O)N[C@@H](C)C(=O)N1CCC[C@H]1C(=O)NCC(=O)N[C@H](C(=O)N[C@@H](CSCC(=O)Nc1ccc2c(c1)C(=O)OC21c2ccc(O)cc2Oc2cc(O)ccc21)C(N)=O)C(C)C [P5Z] (H-GPSQ[Sar]TYPGDDAPVRRL[pS]FFYILLDLYLDAPGVC(Fluorescein(5-NHCOCH2))-NH2) |
| 780 ± 50 | CC[C@H](C)[C@H](NC(=O)[C@H](Cc1ccc(O)cc1)NC(=O)[C@H](Cc1ccccc1)NC(=O)[C@H](Cc1ccccc1)NC(=O)[C@H](COP(=O)(O)O)NC(=O)[C@H](CC(C)C)NC(=O)[C@H](CCCNC(=N)N)NC(=O)[C@H](CCCNC(=N)N)NC(=O)[C@@H](NC(=O)[C@@H]1CCCN1C(=O)[C@H](C)NC(=O)[C@H](CC(=O)O)NC(=O)[C@H](CC(=O)O)NC(=O)CNC(=O)CN(C)C(=O)[C@H](Cc1ccc(O)cc1)NC(=O)[C@@H](NC(=O)[C@@H]1CCCN1C(=O)[C@H](CCC(N)=O)NC(=O)[C@H](CO)NC(=O)[C@@H]1CCCN1C(=O)CN)[C@@H](C)O)C(C)C)C(=O)N[C@@H](CC(C)C)C(=O)N[C@@H](CC(C)C)C(=O)N[C@@H](CC(=O)O)C(=O)N[C@@H](CC(C)C)C(=O)N[C@@H](Cc1ccc(O)cc1)C(=O)N[C@@H](CC(C)C)C(=O)N[C@@H](CC(=O)O)C(=O)N[C@@H](C)C(=O)N1CCC[C@H]1C(=O)NCC(=O)N[C@H](C(=O)N[C@@H](CSCC(=O)Nc1ccc2c(c1)C(=O)OC21c2ccc(O)cc2Oc2cc(O)ccc21)C(N)=O)C(C)C [P8Z] (H-GPSQPTY[Sar]GDDAPVRRL[pS]FFYILLDLYLDAPGVC(Fluorescein(5-NHCOCH2))-NH2) |
| 2550 ± 250 | CC[C@H](C)[C@H](NC(=O)[C@H](Cc1ccc(O)cc1)NC(=O)[C@H](C)NC(=O)[C@H](Cc1ccccc1)NC(=O)[C@H](COP(=O)(O)O)NC(=O)[C@H](CC(C)C)NC(=O)[C@H](CCCNC(=N)N)NC(=O)[C@H](CCCNC(=N)N)NC(=O)[C@@H](NC(=O)[C@@H]1CCCN1C(=O)[C@H](C)NC(=O)[C@H](CC(=O)O)NC(=O)[C@H](CC(=O)O)NC(=O)CNC(=O)[C@@H]1CCCN1C(=O)[C@H](Cc1ccc(O)cc1)NC(=O)[C@@H](NC(=O)[C@@H]1CCCN1C(=O)[C@H](CCC(N)=O)NC(=O)[C@H](CO)NC(=O)[C@@H]1CCCN1C(=O)CN)[C@@H](C)O)C(C)C)C(=O)N[C@@H](CC(C)C)C(=O)N[C@@H](CC(C)C)C(=O)N[C@@H](CC(=O)O)C(=O)N[C@@H](CC(C)C)C(=O)N[C@@H](Cc1ccc(O)cc1)C(=O)N[C@@H](CC(C)C)C(=O)N[C@@H](CC(=O)O)C(=O)N[C@@H](C)C(=O)N1CCC[C@H]1C(=O)NCC(=O)N[C@H](C(=O)N[C@@H](CSCC(=O)Nc1ccc2c(c1)C(=O)OC21c2ccc(O)cc2Oc2cc(O)ccc21)C(N)=O)C(C)C [F20A] (H-GPSQPTYPGDDAPVRRL[pS]FAYILLDLYLDAPGVC(Fluorescein(5-NHCOCH2))-NH2) |
| 830 ± 80 | CC[C@H](C)[C@H](NC(=O)[C@H](Cc1ccc(O)cc1)NC(=O)[C@H](Cc1ccccc1)NC(=O)[C@H](Cc1ccccc1)NC(=O)[C@H](COP(=O)(O)O)NC(=O)[C@H](CC(C)C)NC(=O)[C@H](CCCNC(=N)N)NC(=O)[C@H](CCCNC(=N)N)NC(=O)[C@@H](NC(=O)[C@@H]1CCCN1C(=O)[C@H](C)NC(=O)[C@H](CC(=O)O)NC(=O)[C@H](CC(=O)O)NC(=O)CNC(=O)[C@@H]1CCCN1C(=O)[C@H](Cc1ccc(O)cc1)NC(=O)[C@@H](NC(=O)[C@@H]1CCCN1C(=O)[C@H](CCC(N)=O)NC(=O)[C@H](CO)NC(=O)CN(C)C(=O)CN)[C@@H](C)O)C(C)C)C(=O)N[C@@H](CC(C)C)C(=O)N[C@@H](CC(C)C)C(=O)N[C@@H](CC(=O)O)C(=O)N[C@@H](CC(C)C)C(=O)N[C@@H](Cc1ccc(O)cc1)C(=O)N[C@@H](CC(C)C)C(=O)N[C@@H](CC(=O)O)C(=O)N[C@@H](C)C(=O)N1CCC[C@H]1C(=O)NCC(=O)N[C@H](C(=O)N[C@@H](CSCC(=O)Nc1ccc2c(c1)C(=O)OC21c2ccc(O)cc2Oc2cc(O)ccc21)C(N)=O)C(C)C [P2Z] (H-G[Sar]SQPTYPGDDAPVRRL[pS]FFYILLDLYLDAPGVC(Fluorescein(5-NHCOCH2))-NH2) |
| 680 ± 50 | CC[C@H](C)[C@H](NC(=O)[C@H](Cc1ccc(O)cc1)NC(=O)[C@H](Cc1ccccc1)NC(=O)[C@H](Cc1ccccc1)NC(=O)[C@H](COP(=O)(O)O)NC(=O)[C@H](C)NC(=O)[C@H](CCCNC(=N)N)NC(=O)[C@H](CCCNC(=N)N)NC(=O)[C@@H](NC(=O)[C@@H]1CCCN1C(=O)[C@H](C)NC(=O)[C@H](CC(=O)O)NC(=O)[C@H](CC(=O)O)NC(=O)CNC(=O)[C@@H]1CCCN1C(=O)[C@H](Cc1ccc(O)cc1)NC(=O)[C@@H](NC(=O)[C@@H]1CCCN1C(=O)[C@H](CCC(N)=O)NC(=O)[C@H](CO)NC(=O)[C@@H]1CCCN1C(=O)CN)[C@@H](C)O)C(C)C)C(=O)N[C@@H](CC(C)C)C(=O)N[C@@H](CC(C)C)C(=O)N[C@@H](CC(=O)O)C(=O)N[C@@H](CC(C)C)C(=O)N[C@@H](Cc1ccc(O)cc1)C(=O)N[C@@H](CC(C)C)C(=O)N[C@@H](CC(=O)O)C(=O)N[C@@H](C)C(=O)N1CCC[C@H]1C(=O)NCC(=O)N[C@H](C(=O)N[C@@H](CSCC(=O)Nc1ccc2c(c1)C(=O)OC21c2ccc(O)cc2Oc2cc(O)ccc21)C(N)=O)C(C)C [L17A] (H-GPSQPTYPGDDAPVRRA[pS]FFYILLDLYLDAPGVC(Fluorescein(5-NHCOCH2))-NH2) |
